Assay: Excretion in rats (bile, urine, feces)
Type: in vivo
Settings: i.v. C118P 20 mg/kg
Method: Twelve rats (weight 220–260 g) with half males and half females were anesthetized with diethyl ether after fasted overnight. A median laparotomy was performed and the bile duct was cannulated with a catheter. After intravenous administration (20 mg/kg) of C118P solution, bile samples were collected at 1, 2, 4, 6, 10 and 24 h in EDTA-coated tubes. The accurate volume of bile samples were measured by weight loss method. A volume of 50 μL of bile was prepared by protein precipitation and determined by the method described above. The total cumulative molar excretion percentage of C118P and C118 in bile of ten rats was calculated according to the total molar amount of C118P and C118 and the dose.
Six rats (weight 200–230 g) with half males and half females were fasted overnight. After intravenous administration (20 mg/kg), urine and feces samples were collected at 12, 24, 36, 48, 60 and 72 h. The feces were collected in 200 mL of EDTA solution (100 mg/mL) and grinded into a suspension. The accurately volume amount of urine and feces samples were measured by weight loss method. A volume of 50 μL of urine or feces suspension was prepared by protein precipitation and determined by the method described above. The cumulative molar excretion percentage of C118P and C118 in urine or feces was calculated according to the concentrations of C118P and C118, the volume of each time period.

SMILES: COc1cc(OC)cc(-c2nc[nH]c2-c2ccc(OC)c(OP(=O)([O-])[O-])c2)c1.[Na+].[Na+] [C118P]
- sulfuric acid conjugation in urine: no sulfuric acid conjugation was found

— publication PMC6278385, “Preclinical Pharmacokinetics of C118P, a Novel Prodrug of Microtubules Inhibitor and Its Metabolite C118 in Mice, Rats, and Dogs” (Molecules, 2018)
